Measurements: article PMC6375636, “Monotherapy with a low-dose lipopeptide HIV fusion inhibitor maintains long-term viral suppression in rhesus macaques” (PLoS Pathogens, 2019)
Peptide text beside a SMILES is read from it. * marks the point of attachment. Stearoyl = CCCCCCCCCCCCCCCCCC(=O)*

Key:
[1] = system: HIV-1NL4-3(D36G) pseudovirus; type: cell-based; conditions: Fig 1; NL4-3(D36G) pseudovirus; mean ± SD of three assays in triplicate; read-out: Anti-HIV activity (IC50, pM) NL4-3 entry
Description: The inhibitory activities of inhibitors against HIV-1 pseudoviruses and replication-competent isolates were measured as described previously. Briefly, HIV-1 pseudoviruses were generated via the cotransfection of HEK293T cells with an Env-expressing plasmid and a backbone plasmid that encodes Env-defective, luciferase-expressing HIV-1 genome (pSG3Δenv). Viral stocks of replication-competent HIV-1 isolates were generated by transfecting viral molecular clones into HEK293T cells. […] Inhibitors were prepared in 3-fold dilutions, mixed with 100 TCID50 of a virus, and then incubated for 1 h at room temperature. […] Luciferase activity was measured as described above.

[2] = biological target: T1, gp41 NHR-derived target mimic peptide N39 (Human immunodeficiency virus type 1 group M subtype B, UniProt P04578); assay: CD spectroscopy of lipopeptides in complex with target mimic peptide N39; type: binding, HIV-1; set-up: [θ]222: unit not given here; conditions: complex with N39, each peptide 10 μM in PBS; representative of 2 assays
T1 construct: the gp41 NHR-derived target mimic peptide N39
T1 sequence (P04578 528-566): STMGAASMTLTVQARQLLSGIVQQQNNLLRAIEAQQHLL
Excerpt: Spectra were corrected by subtracting a solvent blank.

HIV-1HXB2 Env = biological target: T2, HIV-1HXB2 Env (Human immunodeficiency virus type 1 group M subtype B, UniProt P04578); assay: HIV-1HXB2 Env-mediated cell-cell fusion (HL2/3 effector, TZM-bl target, luciferase reporter); type: cell-based
T2 construct: HL2/3 cells, which stably express high levels of Env, Gag, Tat, Rev, and Nef proteins of the integrated HIV-1 molecular clone HXB2/3gpt; host or cells: HL2/3 cells (effector), cocultured with TZM-bl target cells
T2 sequence (P04578 512-856): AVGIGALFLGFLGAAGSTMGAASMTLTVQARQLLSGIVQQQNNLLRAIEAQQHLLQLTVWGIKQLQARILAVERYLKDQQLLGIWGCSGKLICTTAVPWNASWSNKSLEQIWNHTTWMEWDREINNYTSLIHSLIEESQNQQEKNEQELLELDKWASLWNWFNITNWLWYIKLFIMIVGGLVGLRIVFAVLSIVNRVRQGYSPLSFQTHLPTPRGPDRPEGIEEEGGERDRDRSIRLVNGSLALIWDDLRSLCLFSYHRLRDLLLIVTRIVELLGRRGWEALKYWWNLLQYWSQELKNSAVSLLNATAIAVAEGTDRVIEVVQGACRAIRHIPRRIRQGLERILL
Description: The inhibitory activities of inhibitors on HIV-1HXB2 Env-mediated cell-cell fusion were determined by a reporter gene assay based on the activation of an HIV LTR-driven luciferase cassette in TZM-bl cells (target) by HIV-1 tat from HL2/3 cells (effector). Briefly, 1 x 10^4/well of TZM-bl cells were plated in 96-well plates and incubated at 37°C overnight. Then, 3 x 10^4/well of HL2/3 cells were cocultured with target cells for 6 h at 37°C in the presence or absence of an inhibitor at graded concentrations. Luciferase activity was measured using luciferase assay reagents and a Luminescence Counter (Promega, Madison, Wisconsin, USA).

HIV-1JRCSF = type: cell-based; conditions: Fig 1; replication-competent virus; mean ± SD of three assays in triplicate; read-out: Anti-HIV activity (IC50, pM) JRCSF infection
Description: The inhibitory activities of inhibitors against HIV-1 pseudoviruses and replication-competent isolates were measured as described previously. Briefly, HIV-1 pseudoviruses were generated via the cotransfection of HEK293T cells with an Env-expressing plasmid and a backbone plasmid that encodes Env-defective, luciferase-expressing HIV-1 genome (pSG3Δenv). Viral stocks of replication-competent HIV-1 isolates were generated by transfecting viral molecular clones into HEK293T cells. Culture supernatants were harvested at 48 h posttransfection, and 50% tissue culture infectious doses (TCID50) in TZM-bl cells were determined. Inhibitors were prepared in 3-fold dilutions, mixed with 100 TCID50 of a virus, and then incubated for 1 h at room temperature. The mixture was added to TZM-bl cells (10^4/well), and the cells were incubated for additional 48 h at 37°C. Luciferase activity was measured as described above.

[3] = lipopeptide alone, 10 μM in PBS; [θ]222 / -33,000; representative of 2 assays

| SMILES | IC50 [1] [pM] | Helix content (%) [2] [%] | [θ]222 [2] | IC50 (HIV-1HXB2 Env) [nM] | IC50 (HIV-1JRCSF) [pM] | Helix content (%) [3] [%] |
| --- | --- | --- | --- | --- | --- | --- |
| CCCCCCCCCCCCCCCCCC(=O)NCCCC[C@H](NC(=O)[C@H](CCCCN)NC(=O)[C@H](CC(C)C)NC(=O)[C@H](CCC(=O)O)NC(=O)[C@H](CCC(=O)O)NC(=O)[C@H](CCC(=O)O)NC(=O)[C@H](CC(N)=O)NC(=O)[C@H](CCCCN)NC(=O)[C@H](CCCCN)NC(=O)[C@H](CCC(N)=O)NC(=O)[C@H](CCC(N)=O)NC(=O)[C@H](CCC(=O)O)NC(=O)[C@H](CCC(=O)O)NC(=O)[C@H](C)NC(=O)[C@H](CCCCN)NC(=O)[C@H](CCCCN)NC(=O)[C@H](CC(C)C)NC(=O)[C@H](CC(C)C)NC(=O)[C@H](CCC(=O)O)NC(=O)[C@H](CCC(=O)O)NC(=O)[C@@H](NC(=O)[C@H](CCCCN)NC(=O)[C@H](CCC(N)=O)NC(=O)[C@H](CCC(=O)O)NC(=O)[C@H](Cc1c[nH]c2ccccc12)NC(C)=O)[C@@H](C)CC)C(N)=O [LP-91] (Ac-WEQKIEELLKKAEEQQKKNEEELKK(Stearoyl)-NH2) | 7.33 ± 0.49 | 55 | -18156 | 0.0131 ± 0.00125 | 11.1 ± 2.13 | 42 |
| CCCCCCCCCCCCCCCCCC(=O)NCCCC[C@H](NC(=O)[C@H](CCC(=O)O)NC(=O)[C@H](CC(C)C)NC(=O)[C@H](CCCCN)NC(=O)[C@H](CCCCN)NC(=O)[C@H](CC(C)C)NC(=O)[C@H](CCC(=O)O)NC(=O)[C@H](CCC(=O)O)NC(=O)[C@H](CCC(=O)O)NC(=O)[C@H](CC(N)=O)NC(=O)[C@H](CCCCN)NC(=O)[C@H](CCCCN)NC(=O)[C@H](CCC(N)=O)NC(=O)[C@H](CCC(N)=O)NC(=O)[C@H](CCC(=O)O)NC(=O)[C@H](CCC(=O)O)NC(=O)[C@H](C)NC(=O)[C@H](CCCCN)NC(=O)[C@H](CCCCN)NC(=O)[C@H](CC(C)C)NC(=O)[C@H](CC(C)C)NC(=O)[C@H](CCC(=O)O)NC(=O)[C@H](CCC(=O)O)NC(=O)[C@@H](NC(=O)[C@H](CCCCN)NC(C)=O)[C@@H](C)CC)C(N)=O [LP-89] (Ac-KIEELLKKAEEQQKKNEEELKKLEK(Stearoyl)-NH2) | 10.8 ± 3.14 | 51 | -16781 | 0.0733 ± 0.021 | 12.4 ± 1.22 | 43 |
